Source: patent publication US11000627B2, “Treatment of implants with phosphonic acid compounds” (Nano Bridging Molecules SA, priority 2016, dated 2021)
Where two headings read alike, the source gives them in different places. Marks after values point to notes of the source that are not given here.

Columns and labels:
Format in all cases: physicochemical
[1] = XPS phosphorus over metal ratio on Titanium grade 5 dental implant (prospective data); conditions: room temperature comparative process
[2] = as above; conditions: 0.5 mM, sonicated 65° C. 10 min, Metal = Ti2p + Al2s + V2p
Experimental: A Titanium grade 5 dental implant (bulk composition atomic concentration Titanium 90%, Aluminum 6%, Vanadium 4%; length 11.0 mm, diameter 3.75 mm) is provided with a roughened surface, produced by sand blasting and acid etching according to industry standards. The dental implant is immersed in 30 ml of a 2% (v/v) aqueous solution of deconex 15 PF-x (which is a phosphate free, potassium hydroxide based standard cleaning agent). The solution is placed in an ultrasonic bath (output frequency 30 kHz) and sonicated at 65° C. for 15 min. The implant is removed from the cleaning agent solution and rinsed with water as follows: 2 times with 30 ml, swirling at room temperature; 4 times with 30 ml, sonicating for 2 min at 65° C.; 1 time with 30 ml, swirling at room temperature. […] The solution is placed in the ultrasonic bath and sonicated at 65° C. for 10 min. The implant is rinsed with water as follows: 2 times with 10 ml, swirling at room temperature; 1 time with 10 ml, sonicating for 2 min at 65° C.; 1 time with 10 ml, swirling at room temperature. The dental implant is dried in a desiccator over P2O5 and under vacuum (ca 20 mbar) for at least 3 hours. The samples are analyzed by X-ray photoelectron spectroscopy (XPS). Same analysis conditions as described in Example 8 are used.

[3] = XPS phosphorus over metal ratio on Titanium grade 4 cylinders
Experimental: XPS analyses were performed on an Axis Ultra spectrometer from Kratos (Kratos, Manchester, U.K.) equipped with a concentric hemispherical analyzer and using a monochromatized aluminum anode X-ray source (Al Kα1,2 1486.6 eV, full width at half maximum, fwhm=0.85 eV, 15 kV, 150 W). The samples were investigated under ultrahigh vacuum conditions: 10^−8-10^−7 Pa. Spectra were taken at a 90° takeoff angle with respect to the surface. A sample area of 300×700 μm^2 or 700×700 μm^2 was analyzed with a pass energy of 80.0 eV for survey scans. The spectrometer was calibrated by using Cu 2p3/2 (932.7 eV) and Au 4f7/2 (84.0 eV) signals. Surface sensitivity factors used to determine the atomic concentrations were those of the instrument. Spectra were peak fitted after background subtraction by assuming a Gaussian/Lorentzian (90-70/10-30) peak shape. All peaks between 0 eV to 1200 eV were inspected.
Two Titanium grade 4 cylinders (bulk composition atomic concentration Titanium 100%; length 6.0 mm, diameter 2.4 mm) were provided with a roughened surface, produced by sand blasting and acid etching according to industry standards. The cylinders were immersed in 6 ml of a 2% (v/v) aqueous solution of deconex 15 PF-x (which is a phosphate free, potassium hydroxide based standard cleaning agent). The solution was placed in an ultrasonic bath (output frequency 30 kHz) and sonicated at 65° C. for 15 min. The cylinders were removed from the cleaning agent solution and rinsed with water as follows: 2 times with 10 ml, swirling at room temperature; 4 times with 10 ml, sonicating for 2 min at 65° C.; 1 time with 10 ml, swirling at room temperature. The cylinders were then placed into 6 ml of a 0.7 mM aqueous solution of 1,1,3,3-propane tetraphosphonic acid. The solution was placed in the ultrasonic bath and sonicated at 65° C. for 15 min. The cylinders were rinsed with water as follows: 2 times with 10 ml, swirling at room temperature; 1 time with 10 ml, sonicating for 2 min at 65° C.; 1 time with 10 ml, swirling at room temperature. The cylinders were dried in a desiccator over P2O5 and under vacuum (ca 20 mbar) for at least 3 hours.
Two Titanium grade 4 cylinders (bulk composition atomic concentration Titanium 100%; length 6.0 mm, diameter 2.4 mm) were provided with a roughened surface, produced by sand blasting and acid etching according to industry standards. The cylinders were immersed in 6 ml of a 2% (v/v) aqueous solution of deconex 15 PF-x (which is a phosphate free, potassium hydroxide based standard cleaning agent). The solution was placed in an ultrasonic bath (output frequency 30 kHz) and sonicated at room temperature for 15 min. The cylinders were removed from the cleaning agent solution and rinsed with water as follows: 2 times with 10 ml, swirling at room temperature; 4 times with 10 ml, sonicating for 2 min at room temperature; 1 time with 10 ml, swirling at room temperature. The cylinders were then placed into 6 ml of a 0.7 mM aqueous solution of 1,1,3,3-propane tetraphosphonic acid. The solution was swirled thoroughly and left to stand at room temperature for 15 min. The cylinders were rinsed with water as follows: 2 times with 10 ml, swirling at room temperature; 1 time with 10 ml, sonicating for 2 min at room temperature; 1 time with 10 ml, swirling at room temperature. The cylinders were dried in a desiccator over P2O5 and under vacuum (ca 20 mbar) for at least 3 hours.

[4] = Concentration 2 mM, sonicated 65° C. 15 min, Metal = Ti2p

Phosphorus/Metal ([3]; Concentration 1 mM, sonicated 65° C. 15 min, Metal = Ti2p) | SMILES | Phosphorus/Metal (surface treatment as described in Comp. Example 6) [1] | Phosphorus/Metal (surface treatment as described herein above) [2] | Phosphorus/Metal [3, 4] | Phosphorus/Metal [3]
 | O=C(CP(=O)(O)O)Oc1ccccc1C(=O)O [PA-9, 2-(2-phosphonoacetoxy)benzoic acid] | 0.05-0.11 | 0.16-0.20 |  | 
 | O=P(O)(O)C1CCCCC1 [PA-5, 1-cyclohexyl phosphonic acid] | 0.05-0.11 | 0.16-0.20 |  | 
 | CC(C)(C)P(=O)(O)O [PA-3, tert-butyl phosphonic acid] | 0.05-0.11 | 0.16-0.20 | 0.02^b | 
 | O=P(O)(O)c1ccccc1 [PA-6, phenyl-1-phosphonic acid] | 0.05-0.11 | 0.16-0.20 | 0.03^b | 
 | C=CCP(=O)(O)O [PA-4, 1-propene-3-phosphonic acid] | 0.05-0.11 | 0.16-0.20 |  | 
 | O=P(O)(O)CCCP(=O)(O)O [PA-2, propane-1,3-diphosphonic acid] | 0.05-0.11 | 0.16-0.20 |  | 
 | O=P(O)(O)CP(=O)(O)O [Methylene-1,1-diphosphonic acid] |  |  |  | 0.10^b
 | NC(CP(=O)(O)O)C(=O)O (centres unmarked) [PA-8, 2-amino-3-phosphonopropionic acid] | 0.05-0.11 | 0.16-0.20 |  | 
0.09^b | CC(O)(P(=O)(O)O)P(=O)(O)O [PA-10, etidronic acid, reference compound] | 0.05-0.11 | 0.16-0.20 |  | 
